Results as given in ChEMBL document CHEMBL1128016, “5-Cyano-2-thiouracils and their derivatives: a new class of leishmanicides” (1994).

How the values were obtained:
Leishmania donovani [1] = experiment: In vivo anti-leishmanial activity was determined against hamster amastigotes of Leishmania donovani; type: functional; design: concentration or dose not given beside the values
Leishmania donovani [2] = experiment: In vivo anti-leishmanial activity against hamster amastigotes of Leishmania donovani at a dose of 10 mg/kg for a period of 5 days; type: functional, organism-based; design: dose 10 mg/kg

Compound	Inhibition (Leishmania donovani [1]) [%]	inhibition (Leishmania donovani [2]) [%]
CSc1nc(Cl)c(C#N)c(-c2ccc(C)cc2)n1	36	
Cc1cccc(-c2nc(SCc3ccccc3)nc(O)c2C#N)c1	0	
Cc1ccc(-c2nc(SCc3ccccc3)[nH]c(=O)c2C#N)cc1	82	
CSc1nc(-c2ccc(C)cc2)c(C#N)c(=O)n1C	50	
CCC1NC(=S)NC(=O)C1C#N (centres undefined)	80	
N#Cc1c(Nc2ccccc2)nc(SCc2ccccc2)nc1-c1cccnc1	57	
N#Cc1c(O)nc(SCc2ccc(Cl)cc2)nc1-c1cccnc1	84	
COc1cccc(-c2nc3n(c(=O)c2C#N)CCCS3)c1	63	
CCc1nc(SCc2ccc(Cl)cc2)nc(O)c1C#N	76	
N#Cc1c(O)nc(S)nc1-c1ccccc1Cl	0	
COc1cccc(-c2nc(SC)n(C)c(=O)c2C#N)c1	61	
COc1cccc(-c2nc(SC)nc(Cl)c2C#N)c1	30	
Sodium stibogluconate		86
C=CCSc1nc(O)c(C#N)c(-c2cccc(OC)c2)n1	80	
N#Cc1c(O)nc(S)nc1-c1ccc(F)cc1	63	
COc1cccc(-c2nc3n(c(=O)c2C#N)CCS3)c1	73	
Cc1ccc(-c2nc(S)nc(O)c2C#N)cc1	63	
COc1cccc(-c2nc(SCc3ccccc3)nc(O)c2C#N)c1	0	
Cc1ccc(-c2nc3n(c(=O)c2C#N)CCCS3)cc1	62	
COc1cccc(-c2nc(SCc3ccc(Cl)cc3)nc(O)c2C#N)c1	85	
COc1cccc(-c2nc(S)nc(O)c2C#N)c1	78	
C=CCSc1nc(O)c(C#N)c(-c2ccc(C)cc2)n1	75	
Cc1ccc(-c2nc3n(c(=O)c2C#N)CCS3)cc1	65	
N#Cc1c(Nc2ccc(F)cc2)nc(SCc2ccccc2)nc1-c1cccnc1	78	
